These results are taken from patent US20210348164A1, “ENDOGENOUS CYTOPLASMIC ALU COMPLEMENTARY DNA IN AGE-RELATED MACULAR DEGENERATION” (University of Virginia Patent Foundation, priority 2018, published 2021).

For series [1], the system named is Alu RNA-induced RPE degeneration. Put plainly: Alu RNA-induced RPE degeneration in wild-type mice (fundus photography, ZO-1 flat mounts). It is filed as in vivo, mouse. The following applies: WT mice. As for the experimental part:
Assessment of RPE degeneration. Subretinal injections were performed as previously described (Kaneko et al., 2011; Tarallo et al., 2012; Kerur et al., 2013; Fowler et al., 2014; Kim et al., 2014). Seven days after subretinal injection, RPE health was assessed by fundus photography and immunofluorescence staining of zonula occludens-1 (ZO-1) on RPE flat mounts (whole mount of posterior eye cup containing RPE and choroid layers). Mouse RPE/choroid flat mounts were fixed with 2% paraformaldehyde, stained with rabbit polyclonal antibodies against mouse ZO-1 (1:100; Invitrogen Corp. Carlsbad, Calif., United States of America) and visualized with Alexa-594 (Invitrogen Corp.). All images were obtained by microscopy (Model SP-5 (Leica Microsystems, Inc., Buffalo Grove, Ill., United States of America) or Nikon MR confocal microscope system (Nikon Instruments Inc. Melville, N.Y., United States of America). Imaging was performed by an operator blinded to the group assignments.
Quantification of RPE degeneration. Quantification of RPE degeneration was performed using two methodologies (binary assignment and cellular morphometry) as described previously (Kerur et al., 2018): Binary assignment (healthy versus unhealthy; Kerur et al., 2013; Fowler et al., 2014; Kim et al., 2014; Kerur et al., 2018) was independently performed by two blinded raters (inter-rater agreement=99.7%; Pearson r2=0.986, P<0.0001; Fleiss x=0.993, P<0.0001). Quantifying cellular morphometry for hexagonally packed cells was performed in semi-automated fashion by three masked graders by adapting our previous analysis of the planar architecture of corneal endothelial cell density (Ach et al., 2015), which resembles the RPE in its polygonal tessellation. Polymegethism (coefficient of variation of cell size), a prominent geometric feature of RPE cells in GA (Kaneko et al., 2011; Dridi et al., 2012; Grossniklaus et al., 2013; Ach et al., 2015), was quantified using the Konan Cell Check software (Ver. 4.0.1), a commercial U.S. FDA-cleared software that has been used for registration clinical trials, as previously described (Kerur et al., 2018).
Subretinal and intravitreous injections. Subretinal injections (1 μl for mice, 3 μl for rat) or intravitreous injections (0.5 μl for mice, 2 μl for rat) in mice or rat were performed using a 35-gauge needle (Ito Co. Fuji, Japan). In vivo transfection of Alu RNA or mutant Alu RNA (3.6-300 ng per eye); Alu complementary DNA (cDNA; 0.0036-90 ng per eye); Alu reverse sequence cDNA (3.6-90 ng per eye); or 7SL cDNA (3.6-90 ng per eye) was performed using 10% NEUROPORTER™ transfection reagent (Genlantis, San Diego, Calif., United States of America) as previously described (Kaneko et al., 2011; Tarallo et al., 2012). […]

The test system of series [2] is Alu cDNA. As to the kind of experiment: Alu cDNA in RPE flat mounts of Casp1/4 dko mice after subretinal Alu RNA (in situ hybridization). It is filed as in vivo, mouse. The following applies: subretinal Alu RNA (or Alu G25C RNA), NNRTIs at high doses. As for the experimental part: Subretinal and intravitreous injections. Subretinal injections (1 μl for mice, 3 μl for rat) or intravitreous injections (0.5 μl for mice, 2 μl for rat) in mice or rat were performed using a 35-gauge needle (Ito Co. Fuji, Japan). In vivo transfection of Alu RNA or mutant Alu RNA (3.6-300 ng per eye); Alu complementary DNA (cDNA; 0.0036-90 ng per eye); Alu reverse sequence cDNA (3.6-90 ng per eye); or 7SL cDNA (3.6-90 ng per eye) was performed using 10% NEUROPORTER™ transfection reagent (Genlantis, San Diego, Calif., United States of America) as previously described (Kaneko et al., 2011; Tarallo et al., 2012). 3TC, TM-3TC, Cpep-3TC, Cpep, PA-4 3TC, EFV, DLV, or NVP (50 μM/1 μl or 500 μM/1 μl) were administered by intravitreous injection (Mandal et al., 2011; Nasrolahi et al., 2013). 1 μl of cholesterol-conjugated siRNAs (2 μg/μl) targeting mouse LINE1 or Luc (luciferase control; Dharmacon, Lafayette, Colo., United States of America) were subretinally injected three days prior to Alu RNA or vehicle administration. Similarly, in Oryzomys palustris, rat L1 plasmids expressing ORF1p, ORF2p, reverse transcriptase-deficient ORF2p (pORF2 (RT-)), or endonuclease deficient ORF2p (pORF2 (EN-)) were delivered via subretinal injection three days prior to administering Alu RNA or vehicle. The choice of eye for experimental versus control injection was chosen randomly. Rat L1 plasmids expressing ORF1 and ORF2 have been described previously (Kirilyuk et al., 2008). The ORF2 (EN-) construct contained mutations D207A and H232A, which, by CLUSTALW alignment, correspond to human D205A and H230A (see Feng et al., 1996) in the endonuclease domain of ORF2p. The ORF2 (RT-) construct contained mutation D703A, which, by CLUSTALW alignment, corresponds to human D702A (see Moran et al., 1996) in the reverse transcriptase domain of ORF2p.
In situ hybridization. […] Visualization of fluorescein-labelled probe was performed with the TSA™ plus fluorescence system or the TSA™ plus Cy5 system (PerkinElmer). The fluorescent or Cy5 signals were detected using a Leica SP-5 or MR Nikon confocal microscope system.

Where [3] appears, read: intravitreous, high (500 μmol) doses.

Entries after “also recorded” stand apart in the source; their conditions may differ.

On to `CC(C)Nc1cccnc1N1CCN(C(=O)c2cc3cc(NS(C)(=O)=O)ccc3[nH]2)CC1` [DLV, delavirdine], for which the “Alu RNA-induced RPE degeneration” value in series [1] (setting [3]) was “blocked Alu RNA toxicity; also recorded: inhibited”. Besides, in series [2], the “Alu cDNA in RPE in vivo” value is reported as “prevented Alu cDNA formation in vivo; also recorded: blocked endogenous cDNA synthesis”.

`O=C1Nc2ccc(Cl)cc2[C@@](C#CC2CC2)(C(F)(F)F)O1` [EFV, efavirenz]: the “Alu RNA-induced RPE degeneration” value in series [1] (setting [3]) is recorded as “blocked Alu RNA toxicity; also recorded: inhibited”. In series [2], the “Alu cDNA in RPE in vivo” value is “prevented Alu cDNA formation in vivo; also recorded: blocked endogenous cDNA synthesis”.

For `Cc1ccnc2c1NC(=O)c1cccnc1N2C1CC1` [NVP, nevirapine], the “Alu RNA-induced RPE degeneration” value in series [1] (setting [3]) is recorded as “did not prevent Alu RNA-induced RPE degeneration at low or high doses”. Besides, in series [2], the “Alu cDNA in RPE in vivo” value is given as “did not prevent Alu cDNA synthesis”.

For the compound “L1 siRNA: siRNA targeting L1; cholesterol-conjugated mouse L1 siRNA (SEQ ID NOs: 48 and 49) in vivo, human L1 siRNA sequences in human cells (chain 1 ACUAUUACUCUGAUACCTT; chain 2 UGUACUAAGGUCAAAUCTT; cholesterol conjugated, position not given here)”, the “Alu RNA-induced RPE degeneration” value in series [1] (subretinal cholesterol-conjugated L1 siRNA vs control siRNA) is reported as “prevented Alu RNA-induced RPE degeneration in wild-type mice; also recorded: blocked Alu RNA induced RPE degeneration”.
